Test results: US10576147B2, “Muramyl peptide derivative compound, synthesis and uses thereof” (BHARAT BIOTECH INTERNATIONAL LIMITED, priority 2015, dated 2020)

Test system: Wistar rats
Experiment: Maximum Tolerated Dose test
Assay type: in vivo, rat
Method: Wistar rats (n=6, 3M & 3F) were administered intramuscularly (i.m) with MDP-MN containing fixed adjuvant dose of 10, 50 and 100 μg/animal/200 μl in an ascending manner. Animals were observed daily for a period of 14 days for clinical signs & mortality. Body weight was measured daily. Food and water consumed by animals were also monitored daily for any abnormalities & Food and water intake per animal was also calculated. Body temperature was measured for every 4 hours upto 24 hrs, later once in daily upto 7 days and then followed by alternate day upto day 14. Rats were sacrificed on day 14 and organs/tissues such as site of injection, spleen, thymus, brain, lungs, Heart, liver, Kidney were collected and done macroscopic examination. […] It indicates rats are tolerable even at high dose (100 μg/animal). Blood was collected between 24-36 hrs were tested for CRP levels, after the injection. […] Moreover, absence of pro-inflammatory cytokines, CRP levels indicates, MDP-MN is not pyrogenic.

`C[C@H](NC(=O)[C@@H](C)O[C@H]1[C@H](O)[C@@H](CO)OC(O)[C@@H]1NC(=O)[C@H](O)CO)C(=O)N[C@H](CCC(=O)O)C(N)=O` (stereo partly drawn) [MDP-MN, (4R)-5-amino-4-((2S)-2-((2R)-2-(((3R,4R,5S,6R)-3-((2,3-dihydroxypropanamido))-2,5-dihydroxy-6-(hydroxymethyl)tetrahydro-2H-pyran-4-yl)oxy)propanamido)propanamido)-5-oxopentanoic acid] was tested, and the tolerated dose (Wistar rats, i.m., 14 days observation, highest dose tested) was 100 μg/animal, the CRP levels (blood 24-36 hrs after injection, high dose (100 μg/animal), normal in rats 200-550 μg/ml) was “normal” and the “macroscopic examination of organs/tissues” value (day 14, site of injection, spleen, thymus, brain, lungs, heart, liver, kidney) was “No significant lesions or abnormalities”. For the same compound, the clinical signs (even at tested high dose (100 μg/animal), 14 days) was “no significant clinical signs”, the weight gain (high dose (100 μg/animal), compared to untreated animals) was “weight gain is less” and the mortality (i.m. 10, 50 and 100 μg/animal, 14 days) was “no mortality”. The tolerated dose (rat, Maximum Tolerated Dose test) was at most 100 μg/rat, the “pyrogenicity (conclusion from cytokines and CRP levels)” value (rat, in vivo) was “not pyrogenic” and the body temperature (upto 14 days) was “no temperature raise”.
